For this assay, the system named is liver-enriched genes (liver signatures). Description: Whole-genome transcriptome microarray on HLC treated with MB-1. The class given is cell-based, human. As to the method:
FIG. 1: Maturation screen identified a small molecule that enhances maturation of HLC. (A) HLC maturation screening cascade. […] Lane 1-3, MB-1 (5 μM) at 7 d, 24 h, and 2 h, respectively. Lane 4-6, MB-1 (0.5 μM) at 7 d, 24 h, and 2 h, respectively. (C) BioQC liver score analysis of HLC transcriptomes (following treatment with MB-1 for 2 h, 24 h, and 7 day) were compared to those of PHH, HepaRG, and HepG2. (D) Expression of AAT-1a in HLC after 14 day of treatment with MB-1, or 1% DMSO. (E) MB-1-treated HLC support robust HBV infection: HLC (in 96-well plate) were treated with MB-1 (1 μM), or 1% DMSO, for 4 days, then infected with patient-derived HBV (MOI 10, in triplicate). Culture medium was harvested at indicated time points and analyzed for HBsAg.
To fully manifest the potential of HLC as a disease-relevant assay for HBV drug discovery, they have to meet the following criteria: hepatocyte-likeness, scalability, assay robustness, and reproducibility. It is well known that HLC still display immature phenotypes i.e. resemble more fetal than adult, hepatocytes (Baxter et al., 2015; Godoy et al., 2015; Goldring et al., 2017). […]

As for `O=C(NCc1cccc(F)c1)c1cccc2[nH]c(-c3c(NC[C@@H](O)c4ccccc4)cc[nH]c3=O)nc12` [MB-1], the “number of liver-enriched genes (liver tissue signature) with up-regulated mRNA expression” value (Gini index >0.7) is about 237. For the setting “Gini index >0.8”, the “number of up-regulated genes that are highly expressed in the liver” value is 137.
